Among the data in patent publication EP2985276A1, “FORMULATIONS BASED ON NANOEMULSIONS AND THE USE THEREOF FOR TREATING OBESITY” (Fundación Pública Andaluza Para La Investigación de Malaga …, priority 2013, dated 2014) are food intake, feeding and cumulative food intake values, retold here.

This test concerns 24 h food-deprived Wistar rats. As to the kind of experiment: Acute feeding study: cumulative food intake after i.p. or oral administration. Type of test: in vivo. On the procedure: The experiments were performed on male Wistar rats weighing 300-350 g. The animals were housed individually under a 12 h light/dark cycle in a room with temperature and humidity control. The rats had ad libitum access to food and water, except during the feeding studies. Prior to the experiments, animals were acclimated to the handling.
For the acute feeding studies, the nanoemulsion G-F68 or Tween 20 were prepared in 5% in saline.
Regarding the acute studies with OEA, the drug was obtained from Tocris Bioscience (Bristol, UK). It was administered in a solution contained the nanoemulsion G-F68 (5%) and saline (95%) prepared in fresh the same day of the experiment. The doses tested were: • a) 1, 5 and 10 mg/kg of OEA for the intraperitoneal acute studies. The volume of the administration was 1 ml/kg. • b) 1, 10 and 50 mg/kg of OEA for the oral acute studies. The volume of the administration was 3 ml/kg.
The hypophagic actions of the N-acylethanolamine OEA were evaluated using the nanoemulsion G-F68 as delivery system (vehicle). For these experiments, we used animals habituated to the experimental protocols. To this end, 48 h before each experiment, the bedding was removed and replaced by small food containers into the cage for 4 h. After this initial phase, the animals were deprived of food for 24 h, but had free access to water. The different treatments were administered 15 min prior access to food. Animals were then returned to their home cages and a measured amount of food (30-40 g) was placed into the cages (t = 0 h). Food pellets were weighed at time intervals of 15, 30, 60, 120 and 240 min, and 24 h after the acute treatment.

As for `CCCCCCCC/C=C\CCCCCCCC(=O)NCCO` [OEA, N-oleoylethanolamine], the food intake result by setting is: (OEA 1 mg/kg oral (i.g., 3 ml/kg) in G-F68, vs G-F68 group, p<0.01 at 240 min) “significant decrease in food intake”; (OEA 5 mg/kg i.p. in G-F68 (5% in saline), vs nanoemulsion group, p<0.001 at 15 min, p<0.05 at 30 min) “significant reduction on food intake”; (OEA 10 mg/kg i.p. in G-F68 (5% in saline), vs nanoemulsion group, p<0.001 at 15, 30 and 60 min) “significant reduction on food intake”; (OEA 10 mg/kg oral (i.g., 3 ml/kg) in G-F68, vs G-F68 group, p<0.05 at 240 min) “significant decrease in food intake”; (OEA 50 mg/kg oral (i.g., 3 ml/kg) in G-F68, vs G-F68 group, significant at 15, 30, 60, 120, 240 min and 24 h) “significant decrease in food intake”; (OEA 50 mg/kg oral (i.g., 3 ml/kg) prepared in Tween 20, vs vehicle Tween 20 group, p<0.05) “significant decrease in food intake only at 30 and 60 min”. Further, the feeding entry (OEA 50 mg/kg oral (i.g., 3 ml/kg) within nanoemulsion G-F68, vs its vehicle group (Figure 7), 15 min to 24 h) was “prolonged and significant reduction of feeding at all times”. For the same compound, the cumulative food intake result (OEA i.p., the different doses (1, 5, 10 mg/kg) in G-F68, 24 h after administration, vs vehicle group) is recorded as “no effects on cumulative food intake”.
